Results taken from patent US5210215A, “Tryptophane and 3-indolepyruvic acid, methods of production therefor” (Polifarma S.p.A., priority 1989, dated 1993).
Read-outs that look alike come from different tables or passages of the source.

What was measured:
[1] = system: formation of free radicals from biological membrane undergoing oxidative stress (MDA formation); test: Formation of malonodialdehyde (MDA) test: antagonism of free radical formation from biological membrane undergoing oxidative stress; format: biochemical; details: in vitro; IC50 = dose of compound necessary to reduce by 50% the harmful effect
Experimental: For the first experiment was chosen the test on formation of malonodialdehyde (MDA). Briefly, the capacity was tested of the above compounds to antagonize the formation of free radicals from biological membrane undergoing oxidative stress.
(§1) of compound necessary to reduce by 50% the harmful effect to be added to the in vitro tests or to be administered to mice.

[2] = system: convulsions and death induced by NMDA (N-methyl-D-aspartic acid); test: Antagonism of convulsions and death induced by NMDA (N-methyl-D-aspartic acid); format: in vivo; details: Mus musculus, ip, mice, IC50 = dose necessary to reduce by 50% the harmful effect
Experimental: For the second experiment, on the contrary, the capacity of the compounds to antagonize the convulsions and death induced by NMDA (N-methyl-D-aspartic acid), an excitatory amino acid, was evaluated.
as §1

[3] = convulsions, read-out: CONVULSIONS from MDA IC50
[4] = death, read-out: DEATH from MDA IC50

| SMILES | IC50 [1] [µM] | ED50 [2, 3] [mg/kg] | ED50 [2, 4] [mg/kg] |
| --- | --- | --- | --- |
| NC(Cc1c[nH]c2cc(Cl)ccc12)C(=O)O (racemic) [6-Cl-TRP, 6-chloro-DL-tryptophan] | 1000 | 1000 | 200 |
| O=C(O)C(=O)Cc1c[nH]c2cccc(Cl)c12 [4-Cl-IPA, 4-chloro-indole-3-yl-pyruvic] | 1000 | 1000 | 200 |
| O=C(O)C(=O)Cc1c[nH]c2ccc(Cl)cc12 [5-Cl-IPA, 5-chloro-indole-3-yl-pyruvic] | 500 | 600 | 200 |
| O=C(O)C(=O)Cc1c[nH]c2cc(Br)ccc12 [6-Br-IPA] | 50 | 100 | 20 |
| O=C(O)C(=O)Cc1c[nH]c2cc(Cl)ccc12 [6-Cl-IPA, 6-chloro-indole-3-yl-pyruvic acid] | 100 | 20 | 10 |
| Cc1ccc2c(CC(=O)C(=O)O)c[nH]c2c1 [6-Me-IPA, 6-methyl-indole-3-yl-pyruvic] | 60 | 200 | 100 |
| O=C(O)C(=O)Cc1c[nH]c2cc(O)ccc12 [6-OH-IPA] | 500 | 800 | 200 |
| COc1ccc2c(CC(=O)C(=O)O)c[nH]c2c1 [6-OMe-IPA] | 100 | 200 | 100 |
| O=C(O)C(=O)Cc1c[nH]c2c(Cl)cccc12 [7-Cl-IPA] | 400 | 1000 | 200 |
| O=C(O)C(=O)Cc1c[nH]c2ccccc12 [IPA, 3-indolepyruvic acid] | 10 | 200 | 50 |
